Data as given in US20260159519A1, “IMIDAZOPYRIDAZINE SUBSTITUTED BENZENE RING DERIVATIVE, PREPARATION METHOD, PHARMACEUTICAL COMPOSITION AND USE” (SHANGHAI SIMR BIOTECHNOLOGY CO., LTD., priority 2022, published 2026).

The compounds below were run against T1, human α1-GABAA receptor (α1-GABAAR-HEK293 cells) (Homo sapiens, UniProt P14867+P18507) (assay: Whole-cell patch-clamp electrophysiology, positive allosteric modulatory activity on α1-GABAA receptor). Conditions: read-out: α1-GABAA positive allosteric modulatory activity.
T1 construct: expressed in transfected cells
T1 sequence (P14867 28-456): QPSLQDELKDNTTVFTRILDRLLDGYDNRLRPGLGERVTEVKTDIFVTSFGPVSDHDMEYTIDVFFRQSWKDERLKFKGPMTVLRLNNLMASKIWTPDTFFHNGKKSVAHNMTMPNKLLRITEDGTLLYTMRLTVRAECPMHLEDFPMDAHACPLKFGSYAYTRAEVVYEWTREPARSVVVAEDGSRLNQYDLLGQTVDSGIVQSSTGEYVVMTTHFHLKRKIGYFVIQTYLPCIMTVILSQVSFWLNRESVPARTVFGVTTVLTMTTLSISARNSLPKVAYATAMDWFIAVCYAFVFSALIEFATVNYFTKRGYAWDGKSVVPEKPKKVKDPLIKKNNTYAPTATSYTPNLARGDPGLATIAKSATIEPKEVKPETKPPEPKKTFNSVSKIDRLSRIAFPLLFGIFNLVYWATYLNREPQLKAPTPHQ
T1 sequence (P18507 40-467 isoform P18507-1 limits assumed): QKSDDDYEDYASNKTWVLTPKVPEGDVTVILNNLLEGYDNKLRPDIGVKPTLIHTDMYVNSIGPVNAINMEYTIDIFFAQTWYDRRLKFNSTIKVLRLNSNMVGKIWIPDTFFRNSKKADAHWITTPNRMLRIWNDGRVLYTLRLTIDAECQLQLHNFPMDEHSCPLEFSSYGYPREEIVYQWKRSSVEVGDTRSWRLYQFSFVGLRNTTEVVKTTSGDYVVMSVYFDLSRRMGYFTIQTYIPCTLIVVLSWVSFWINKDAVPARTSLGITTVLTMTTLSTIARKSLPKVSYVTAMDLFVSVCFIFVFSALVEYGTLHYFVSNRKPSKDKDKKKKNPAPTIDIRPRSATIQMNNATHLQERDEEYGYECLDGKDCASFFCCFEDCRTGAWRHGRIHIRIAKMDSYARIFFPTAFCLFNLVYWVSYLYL
T1 sequence (P28472 26-473 partner): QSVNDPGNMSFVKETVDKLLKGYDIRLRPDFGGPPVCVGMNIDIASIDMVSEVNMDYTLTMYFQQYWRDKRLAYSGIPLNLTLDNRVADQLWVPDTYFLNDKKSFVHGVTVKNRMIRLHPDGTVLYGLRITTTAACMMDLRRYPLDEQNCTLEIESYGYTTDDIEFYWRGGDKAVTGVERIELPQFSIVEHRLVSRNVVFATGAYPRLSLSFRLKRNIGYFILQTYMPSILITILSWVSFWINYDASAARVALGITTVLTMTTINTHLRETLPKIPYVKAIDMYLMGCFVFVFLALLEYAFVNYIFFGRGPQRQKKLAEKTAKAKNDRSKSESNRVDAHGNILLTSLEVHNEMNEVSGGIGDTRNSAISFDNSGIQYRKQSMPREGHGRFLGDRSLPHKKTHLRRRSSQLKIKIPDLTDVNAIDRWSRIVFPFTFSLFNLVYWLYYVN
Type: cell-based

| activation at 0.1 µM [%] | SMILES |
| --- | --- |
| 13 | CCN1C(=O)COc2cc(-c3cc(-c4cnnc5c4ncn5CC)ccc3F)c(OC)cc21 [Example 31, 4-Ethyl-7-(5-(7-ethyl-7H-imidazo[4,5-c]pyridazin-4-yl)-2-fluorophenyl)-6-methoxy-2H-benzo[b][1,4]oxazin-3(4H)-one] |
| 25 | COc1cc2c(cc1-c1cc(-c3cnnc4c3ncn4C(C)C)ccc1F)OCC(=O)N2C [Example 36, 7-(2-Fluoro-5-(7-isopropyl-7H-imidazo[4,5-c]pyridazin-4-yl)phenyl)-6-methoxy-4-methyl-2H-benzo[b][1,4]oxazin-3(4H)-one] |
| 27 | CCn1cnc2c(-c3ccc(F)c(-c4cc5c(cc4OC)N(C)C(=O)CO5)c3)cnnc21 [Example 42, 7-(5-(7-Ethyl-7H-imidazo[4,5-c]pyridazin-4-yl)-2-fluorophenyl)-6-methoxy-4-methyl-2H-benzo[b][1,4]oxazin-3(4H)-one] |
| 3 | CCn1cnc2c(-c3ccc(F)c(-c4cc5oc(=O)n(C)c5cc4OC)c3)cnnc21 [Example 87, 6-(5-(7-Ethyl-7H-imidazo[4,5-c]pyridazin-4-yl)-2-fluorophenyl)-5-methoxy-3-methylbenzo[d]oxazol-2(3H)-one] |
| 65 | CCn1cnc2c(-c3ccc(F)c(-c4cc5c(cc4OC)N(C)C(=O)C5)c3)cnnc21 [Example 161, 5-(5-(7-Ethyl-7H-imidazo[4,5-c]pyridazin-4-yl)-2-fluorophenyl)-6-methoxy-1-methyldihydro-2-one] |
